Measurements: patent publication US12213479B2, “Monoterpenoid/phenylpropanoid-containing compounds and methods of their making and use as herbicides” (KITTRICH CORPORATION, priority 2016, dated 2025)
“Also recorded” adds a separate entry of the source.

Columns and labels:
[1] = test system: Palmer Amaranth (Amaranthus palmeri); test: Toxicity assay (probit LC50), Palmer amaranth; format: in vivo
Text: (§1) Palmer amaranth seeds were obtained from the Department of Agronomy at Iowa State University. Individual seeds were sown for each pot (1.5″ wide×3″ deep) with approximately 7.5 g of soil for each plot. Five seeds/plot were sown into numerous plots. After one month of germination, germinated plants were counted in each plot and this number was used for the total number of plants challenged per plot in the toxicity assessment
(§2) The total number of plants were counted in each plot in 24×6 hexagonal small plot planter tray. The number of germinated seeds in each plot was enumerated after one month, and for each plot this number was recorded and used as the total for each plot. Differing concentrations of thymyloxyacetic acid was applied in 5% Triton-X 100 and 1:1 molar ratio potassium hydroxide:thymyloxyacetic acid to aid in the solubility of the compound in water. Ten mL of solution was applied to each plot, and the mortality of the plants was assessed at 3 days and 2 weeks post application (for some treatments). Mortality at these time points were enumerated out of the total plants germinated in each plot at the beginning of the assay. At both time points, the total number of dead plants and total number of plants at the beginning of the assay were recorded for each observation. A Probit model was used to calculate the LC50 values for each of the compounds explored in this assay. A formulation control (with no active ingredient) was screened against a number of plants and factored into the final probit model. This formulation control had little-to-no effect by itself.

[2] = test system: Waterhemp (Amaranthus tuberculatus); test: Toxicity assay (probit LC50), waterhemp; format: in vivo
Text: as §1, with “Waterhemp seeds” for “Palmer amaranth seeds”, “seeds/plot was” for “seeds/plot were”, “toxicity assessment.” for “toxicity assessment”
as §2

[3] = test system: various dicot weed species; test: Selectivity assessment, dicot weed species compared to bluegrass; format: in vivo; conditions: range over various weed species
Text: Kentucky bluegrass seeds were purchased in a bag under the commercial name of. Individual seeds were sown for each pot (1.5″ wide×3″ deep) with approximately 7.5 g of soil for each plot. 10 seeds/plot was sown into numerous plots. After one month of germination, germinated plants were counted in each plot and this number was used for the total number of plants challenged per plot in the toxicity assessment.
as §2, with “A formulation control (with no active ingredient) was screened against a number of plants and factored into the final probit model. This formulation control had little-to-no effect by itself.” left out

Wood sorrel = test: Foliar spray, wood sorrel; format: in vivo; conditions: 20 sprays of 1%, observed 2 days after exposure and later
Description: Wood sorrel on the ground of the greenhouse was also treated with active ingredient in order to better assess the effects of foliar treatments on multiple plant species. A patch of wood sorrel was (approximately 4′×3′) was treated with 20 sprays (mist setting) from a MAINStays ironing spray bottle. Effects of the spray were recorded 2 days after exposure.

[4] = test system: Cocklebur (Xanthium spp.); test: Toxicity assay (probit LC50), cocklebur; format: in vivo
Text: as §1, with “Cocklebur burs” for “Palmer amaranth seeds”, “One bur/plot was” for “Five seeds/plot were”, “assessment.” for “assessment”
as §2

corn seeds = test: Germination assay, corn seeds coated with compound; conditions: for inhibition of corn seed germination: seed coating 1% weight compound/weight seed, 3, 5, 7 days
Soybean plants [5] = test: Soil drench assay, soybean plants; format: in vivo; parameters: key to phytotoxicity (qualitative), soil drench: NOE: No Observable Effect; XXX: Dead; -: the lowest phytotoxic effect; --: phytotoxicity that did not result in death; ---: phytotoxicity that did not result in death; ------: the highest; conditions: for phytotoxicity (qualitative), soil drench: Soybean, 40 mL; for overall phytotoxicity to soybean plants, soil drench: 0.5%-1% formulations
Description: Soybean plants were planted under 1 cm of potting soil and watered every 2-3 days as necessary. Plants were grown in pots (6″ wide×4.5″ deep) with approximately 800 mL of soil for each plant. Seeds germinated approximately 3-5 days after being planted. Plants were grown in a greenhouse under a constant temperature and light environment (25±5° C., 12 hr: 12 hr light: dark cycle). Plants were grown until reaching 1-2 weeks old and 3-4 weeks old; these plants served as the “young” and “old” plants in this study, respectively.
Formulations of the various active ingredients were created using the monoterpenoid derivatives, potassium hydroxide, and Triton-X 100™ to aid in the solvation of the active ingredient. Formulations consisted of 0.5%-1% active ingredient by weight (0.5-1 g/100 ml water), with a 1:1 molar ratio of potassium hydroxide used to aid in the solvation (135-269 mg/100 mL for both thymyloxyacetic acid and carvacryloxyacetic acid). […] Formulations were applied to the soil next to the base of the stem of the plant to avoid foliar contact. Observations were performed 2 days and 3 weeks after soil drench to determine the effects of the treatments on the various types and stages of plants.

Corn plants = test: Soil drench assay, corn plants; format: in vivo; parameters: key to phytotoxicity (qualitative), soil drench: NOE: No Observable Effect; XXX: Dead; -: the lowest phytotoxic effect; --: phytotoxicity that did not result in death; ---: phytotoxicity that did not result in death; ------: the highest; conditions: for phytotoxicity (qualitative), soil drench: Corn, 40 mL; for overall phytotoxicity to corn plants, soil drench: 0.5%-1% formulations
Description: Corn plants were planted under ½″ of potting soil and watered every 2-3 days as necessary. Plants were grown in potting plants (6″ wide×4.5″ deep) with approximately 800 mL of soil for each plant. Seeds germinated approximately 4-7 days after being planted. Plants were grown in a greenhouse under a constant temperature and light environment (25±5° C., 12 hr: 12 hr light: dark cycle). Plants were grown until reaching 1-2 weeks old and 3-4 weeks old; these plants served as the “young” and “old” plants in this study, respectively. Formulations of the various active ingredients were created using the monoterpenoid derivatives, potassium hydroxide, and Triton-X 100™ to aid in the solvation of the active ingredient. […] Formulations were applied to the soil next to the base of the stem of the plant to avoid foliar contact. Observations were performed 2 days and 3 weeks after soil drench to determine the effects of the treatments on the various types and stages of plants.

Soybean plants [6] = test: Soil drench assay, soybean plants; format: in vivo; parameters: key: NOE: No Observable Effect; XXX: Dead; -: the lowest phytotoxic effect; --: phytotoxicity that did not result in death; ---: phytotoxicity that did not result in death; ------: the highest; conditions: 3-weeks after treatment, Old Plants, 7%, 40 mL
soybeans = test: Germination assay, soybeans coated with compound; format: in vivo, soybean; conditions: beans coated in 1% weight compound/weight bean
Text: Soybeans were susceptible to Aphis glycines infestation and were not determined to be a biotype that was resistant to infestation, which could confide results. Germination typically occurred between 3-5 days after moistening.

[7] = 2-days after treatment, Old Plants, 0.50%
[8] = 2-days after treatment, Old Plants, 1%
[9] = 2-days after treatment, Young Plants, 0.50%
[10] = 2-days after treatment, Young Plants, 1%
[11] = 3-weeks after treatment, Old Plants, 0.50%
[12] = 3-weeks after treatment, Young Plants, 0.50%
[13] = 3-weeks after treatment, Young Plants, 1%
[14] = 3-weeks after treatment, Old Plants, 1%

SMILES	inhibition of corn seed germination (corn seeds)	phytotoxicity (qualitative), soil drench (Soybean plants [5]; [7])	phytotoxicity (qualitative), soil drench (Soybean plants [5]; [8])	phytotoxicity (qualitative), soil drench (Soybean plants [5]; [9])	phytotoxicity (qualitative), soil drench (Soybean plants [5]; [10])	phytotoxicity (qualitative), soil drench (Soybean plants [5]; [11])	phytotoxicity (qualitative), soil drench (Soybean plants [5]; [12])	phytotoxicity (qualitative), soil drench (Soybean plants [5]; [13])	phytotoxicity (qualitative), soil drench (Corn plants; [7])	phytotoxicity (qualitative), soil drench (Corn plants; [8])	phytotoxicity (qualitative), soil drench (Corn plants; [9])	phytotoxicity (qualitative), soil drench (Corn plants; [10])	phytotoxicity (qualitative), soil drench (Corn plants; [11])	phytotoxicity (qualitative), soil drench (Corn plants; [14])	phytotoxicity (qualitative), soil drench (Corn plants; [12])	phytotoxicity (qualitative), soil drench (Corn plants; [13])	phytotoxicity (qualitative), soil drench (Soybean plants [6])	inhibition of soybean germination/growth (words) (soybeans)	overall phytotoxicity to soybean plants, soil drench (Soybean plants [5])	overall phytotoxicity to corn plants, soil drench (Corn plants)	other results
O=C(O)COc1ccc(Cl)cc1Cl [2,4-D, 2,4-dichlorophenoxyacetic acid]																					LC50 Value ([1]; Palmer Amaranth (Table 6)): 1300 ppm; Selective Toxicity Compared to Bluegrass ([1]; Palmer Amaranth compared to bluegrass): 3.54; LC50 Value ([1]; Palmer Amaranth, 2-week post application, probit): 465.04 ppm; LC50 Value ([1]; Palmer Amaranth, 3-day post application, probit): 1300 ppm; phytotoxicity compared with the other compound ([1]; Palmer amaranth, 95% confidence intervals overlapped): marginally more phytotoxic than thymyloxyacetic acid; LC50 at two weeks compared with three days after application (residual character in soil) ([1]; in vivo): significantly lower LC50 value; LC50 Value ([2]; Waterhemp): 1800 ppm; Selective Toxicity Compared to Bluegrass ([2]; Waterhemp compared to bluegrass): 2.56; selectivity ratio compared to a blue grass species [3]: 2.56-5.97 fold; phytotoxic effect on wood sorrel, foliar spray (Wood sorrel): took much longer to die; phytotoxic effect on wood sorrel, foliar spray (Wood sorrel; listed as 2,4-dichloroacetic acid): plant death was not observed until much later; also recorded: uncontrolled growth and some chlorosis; LC50 Value ([4]; Cocklebur): 770 ppm; Selective Toxicity Compared to Bluegrass ([4]; Cocklebur compared to bluegrass): 5.97
C=CCc1ccc(OCC(=O)OC)c(OC)c1 [eugenyloxyacetic acid methyl ester]	most capable of inhibiting the growth of corn seeds																				
C=CCc1ccc(OCC(=O)O)c(OC)c1 [eugenyloxyacetic acid, 2-(4-allyl-2-methoxyphenoxy)acetic acid]		-	-	-	--	XXX	-	XXX	NOE	-	NOE	NOE	-	--	-	--	-	prevented the growth of soybeans			corn seed germination at day 3 (corn seeds; seed coating, day 3): some level of germination
COC(=O)COc1cc(C)ccc1C(C)C [thymyloxyacetate methyl ester]		---		---		XXX	XXX	XXX	--	--	--	--	XXX	XXX	XXX	XXX	XXX		significantly inhibited the growth of soybeans	most phytotoxic to corn	
COc1cc(C(=O)O)ccc1OCC(=O)O [vanillic acid-oxyacetic acid, 4-(carboxymethoxy)-3-methoxybenzoic acid]	significantly inhibited by all compounds screened except for	NOE	NOE	NOE	NOE	NOE	NOE	NOE	NOE	NOE	NOE	NOE	NOE	NOE	NOE	NOE	NOE		did not cause phytotoxic effects	did not produce significant phytotoxic symptoms	
COc1cc(C=O)ccc1OCC(=O)O [vanillyloxyacetic acid, 2-(4-formyl-2-methoxyphenoxy)acetic acid]	significantly inhibited by all compounds screened except for	NOE	NOE	NOE	NOE	NOE	NOE	NOE	NOE	NOE	NOE	NOE	NOE	NOE	NOE	NOE	NOE	little to no inhibitory effect	did not cause phytotoxic effects	did not produce significant phytotoxic symptoms	inhibition of soybean germination/growth (words) (soybeans; listed as Vanillyloxyacetic acid): does not produce significant inhibition of plant growth
